Reference: patent publication US20100215618A1, “NOVEL COMPOUNDS - 644” (Arrow Therapeutics Limited, priority 2009, published 2010)
pIC50: −log10 of the molar value. Like-named read-outs stand apart in the source and are kept apart here.

Experiments:
[1] = system: HCV replicon cells Huh 9B; assay type: cell-based; details: Huh 9B replicon cells, 72 h, methylene blue, total cell area reduced by 50%
Procedure: HCV replicon cells Huh 9B (ReBlikon), containing the firefly luciferase-ubiquitin-neomycin phosphotransferase fusion protein and EMCV-IRES driven HCV polyprotein with cell culture adaptive mutations.
Replicon cells were trypsinised and counted. Cells were diluted to 100,000 cells/ml and 100 μl used to seed one opaque white 96-well plate (for the replicon assay) and one flat-bottomed clear plate (for the tox assay) for every five compounds to be tested for IC50. Wells G12 and H12 were left empty in the clear plate as the blank. Plates were then incubated at 37° C./5% CO2 for 24 h.
On the following day compound dilutions were prepared in medium at twice their desired final concentration in a clear round bottomed plate. All dilutions have a final DMSO concentration of 1%.
Controls and compounds were transferred from the dilution plates to the assay plates (containing the cells) at 100 μl/well in duplicate wells.
Exception: no compound was added to wells A1 and A2 of either plate and 100 μl of 1% DMSO was added to these instead. Plates were then incubated at 37° C./5% CO2 for 72 h.
The clear plate was stained with 100 μA 0.5% methylene blue in 50% ethanol at room temperature for 1 h, followed by solvation of the absorbed methylene blue in 100 μl per well of 1% lauroylsarcosine. Absorbance of the plate was measured on a microplate spectrophotometer (Molecular Devices) and the absorbance for each concentration of compound expressed as a proportion of the relative DMSO control. The TD50, the is concentration of drug required to reduce the total cell area by 50% relative to the DMSO controls, was calculated by plotting the absorbance at 620 nm after background substraction against drug concentration.

in vitro = in vitro ADME, Canine; details: dog, MDCK
Procedure: Cells used: MDCK (Madin-Darby Canine Kidney) cells, ATCC collection # CCL-34, are used to model the intestinal barrier. Cell culture conditions: cells were cultured at 37° C. in a 5% CO2 environment and split twice a week on seeding at 4×10^5 cells/flask (75 cm^2) on day 1 and 2×10^5 cells/flask on day 4. The culture medium consisted of MEM+Earle's-L Glutamine (Gibco #21090-022) supplemented with 10% Australian Fetal Calf Serum (Sigma #F6178), 2 mM L-Glutamine (Gibco #25030-024) and 1× Non Essential Amino Acids (Gibco #11140-035)
On day 1, a 24-well plate (Sarstedt, #83.1836.300) was filled with individual 3 lam pore membrane inserts (Millipore, #PITP 012 50). Each plate allows the testing of a cocktail of 3 control compounds and 11 test compounds in duplicate. The wells (outside the inserts) were filled with 500 μl of culture medium.
A flask of cells was trypsinised and a cell count carried out. Cells were diluted to 1.2×10^5 cells/ml (1×10^5 cells/cm^2) and 500 μl dispensed in each insert on the 24-well plate. The plate was incubated at 37° C. in a 5% CO2 environment for 48 hours.
On day 3, the culture medium was removed from the wells, then the inserts and is replaced with fresh culture medium in the wells, then the inserts (500111 per well and insert) The plate was incubated at 37° C. in a 5% CO2 environment for 24 hours.
On day 4, the controls cocktail and test compounds solutions were made up in HBSS buffer (Hank's Balanced Salt Solution, Gibco #14025-050) at 1011M. The final controls and test compounds concentration in the assay was 10 μM, and DMSO concentration maintained at 0.1% (0.3% for the controls cocktail). The controls cocktail was made up of Atenolol (Sigma # A-7655), Dexamethasone (Sigma #D-1756) and Propranolol (Sigma # P-0884).
A 24-well plate was filled with 500 μl of HBSS buffer per well (assay plate) The culture medium was removed from the wells and inserts. The inserts were washed three times with approximately 500 μl of HBSS buffer. The inserts were transferred to the assay plate. Controls cocktail and test compounds solutions were dispensed inside the inserts (500 μl per insert), in duplicates. The assay plate was incubated at 37° C. in a 5% CO2 environment for 2 hours.
After 2 hours, the inserts were removed from the assay plate and transferred into a new 24-well plate (wash plate) The assay plate containing the receiver solutions was left aside for later sampling. To measure the mass balance, 150 μl were sampled from each insert (donor solutions) and dispensed into 150 μl of HPLC-grade Acetonitrile (Fisher Scientific) containing an internal standard and 0.05% formic acid.
The donor solutions were aspirated and discarded from each insert, and the inserts washed once with approximately 500 μl of HBSS buffer. A 24-well plate was filled with 500 μl of HBSS buffer per well (monolayer integrity plate) A Lucifer Yellow (Sigma #L0144) solution was made up at 1001.1M in HBSS buffer. The empty inserts were transferred into the monolayer integrity plate and filled with 500 μl of the Lucifer Yellow solution to determine the cell monolayers integrity and leftover of the solution was kept in a fridge. The plate was incubated at 37° C. in a 5% CO2 environment for 2 hours.
In the meantime, 150 μl were sampled from the assay plate (receiver solutions) and dispensed into 150 μl of HPLC-grade Acetonitrile containing an internal standard and 0.05% formic acid. A calibration curve was made for each mix of compounds (as appropriate depending on compounds molecular weights) A 10 μM mix of compounds in HBSS buffer was diluted 1:1 in HPLC-grade Acetonitrile containing an internal standard and 0.05% formic acid. A 1:1 mix of HBSS buffer and HPLC-grade Acetonitrile containing an internal standard and 0.05% formic acid was made up and used to make up the calibration curve (2 fold dilutions), with concentrations ranging from 10 μM to 0.078 μM. […]

[2] = system: HCV replicon cells Huh 9B (genotype 1b); experiment: 1b Replicon Assay (luciferase readout); assay type: cell-based; details: Hepatitis C virus, Huh 9B replicon cells, 72 h, luciferase activity; for pIC50: read-out: HCV IC50 1b Replicon; for IC50: read-out: pIC50 1b Replicon (converted)
[3] = system: HCV genotype 1a replicon cells Htat2ANeo; experiment: 1a Replicon Assay (cell-based anti-NS5a ELISA); details: Hepatitis C virus, 72 h
Summary of the method: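 HCV 1a Htat2ANeo replicon cells (Et2AN control cells) exposed to compound for 72 h at 37° C without G418/blasticidin. NS5a quantified by cell-based ELISA (anti-NS5a, HRP/OPD, A490); IC50 from percentage reduction versus untreated control. Cytotoxicity TD50 by Cell Titre Blue fluorescence (ex 570/em 590 nm) versus DMSO controls.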

Compound	HCV TD50 Replicon [1] [µM]	Papp at 2 h, 10 µM (in vitro) [×10⁻⁶ cm/s]	pIC50 [2]	IC50 [2] [nM]	pIC50 ([3]; read-out: HCV IC50 Elisa 1a)	IC50 ([3]; read-out: pIC50 1a Replicon (converted)) [nM]
COC(=O)N[C@H](C(=O)N1CCC[C@H]1c1ncc(-c2ccc(-c3ccc(C(=O)Nc4ccc(CN5CCS(=O)(=O)CC5)cc4)cc3)cc2)[nH]1)[C@@H](C)O [Example 17, Methyl N-[(1S,2R)-1-[(2S)-2-[5-[4-[4-[[4-[(1,1-dioxo-1,4-thiazinan-4-yl)methyl]phenyl]carbamoyl]phenyl]phenyl]-1H-imidazol-2-yl]pyrrolidine-1-carbonyl]-2-hydroxy-propyl]carbamate]	18.4	0.4	9.52	0.302	–	–
COC(=O)N[C@@H](C)C(=O)N1CCC[C@@H]1c1ncc(-c2ccc(-c3ccc(C(=O)Nc4ccc(CN5CCS(=O)(=O)CC5)cc4)cc3)cc2)[nH]1 [Example 21, Methyl N-[(1S)-2-[(2R)-2-[5-[4-[4-[[4-[(1,1-dioxo-1,4-thiazinan-4-yl)methyl]phenyl]carbamoyl]phenyl]phenyl]-1H-imidazol-2-yl]pyrrolidin-1-yl]-1-methyl-2-oxo-ethyl]carbamate]	–	1.4	6.38	417	–	–
COC(=O)N[C@H](CC(C)C)C(=O)N1CCC[C@H]1c1ncc(-c2ccc(-c3ccc(C(=O)Nc4ccc(CN5CCS(=O)(=O)CC5)cc4)cc3)cc2)[nH]1 [Example 15, Methyl N-[(1R)-1-[(2S)-2-[5-[4-[4-[[4-[(1,1-dioxo-1,4-thiazinan-4-yl)methyl]phenyl]carbamoyl]phenyl]phenyl]-1H-imidazol-2-yl]pyrrolidine-1-carbonyl]-3-methyl-butyl]carbamate]	>25	0.3	8.42	3.8	–	–
COC(=O)N[C@H](C(=O)N1CCC[C@@H]1c1ncc(-c2ccc(-c3ccc(C(=O)Nc4ccc(CN5CCS(=O)(=O)CC5)cc4)cc3)cc2)[nH]1)C(C)(C)C [Example 22, Methyl N-[(1S)-1-[(2R)-2-[5-[4-[4-[[4-[(1,1-dioxo-1,4-thiazinan-4-yl)methyl]phenyl]carbamoyl]phenyl]phenyl]-1H-imidazol-2-yl]pyrrolidine-1-carbonyl]-2,2-dimethyl-propyl]carbamate]	–	0.55	6.58	263	–	–
COC(=O)N[C@@H](C(=O)N1CCC[C@H]1c1ncc(-c2ccc(-c3ccc(C(=O)Nc4ccc(CN5CCS(=O)(=O)CC5)cc4)cc3)cc2)[nH]1)C(C)C [Example 13, Methyl N-[(1R)-1-[(2S)-2-[5-[4-[4-[[4-[(1,1-dioxo-1,4-thiazinan-4-yl)methyl]phenyl]carbamoyl]phenyl]phenyl]-1H-imidazol-2-yl]pyrrolidine-1-carbonyl]-2-methyl-propyl]carbamate]	>25	0.3	7.38	41.7	–	–
CC(C)(C)OC(=O)N[C@H](C(=O)N1CCC[C@H]1c1ncc(-c2ccc(-c3ccc(C(=O)Nc4ccc(CN5CCS(=O)(=O)CC5)cc4)cc3)cc2)[nH]1)c1ccccc1 [Example 1, Tert-butyl N-[(1S)-2-[(2S)-2-[5-[4-[4-[[4-[(1,1-dioxo-1,4-thiazinan-4-yl)methyl]phenyl]carbamoyl]phenyl]phenyl]-1H-imidazol-2-yl]pyrrolidin-1-yl]-2-oxo-1-phenyl-ethyl]carbamate]	>25	–	11.00	0.0138	7.38	41.7
